Assay results: ChEMBL document CHEMBL3813638, “Investigation of the apoptotic pathway induced by benzimidazole-oxindole conjugates against human breast cancer cells MCF-7” (Bioorg Med Chem Lett, 2016)
Activity calls are given as the source filed them. The rule behind the calls is not given here.

Assays:
MCF7 [1] = assay: Induction of apoptosis in human MCF7 cells assessed as suppression of Bcl-2 expression after 48 hrs by Western blot analysis; format: functional, cell-based
MCF7 [2] = assay: Induction of apoptosis in human MCF7 cells assessed as increase in Bax expression after 48 hrs by Western blot analysis; format: functional, cell-based
MCF7 [3] = assay: Induction of apoptosis in human MCF7 cells assessed as increase in cytochrome c levels at 1 to 2 uM after 48 hrs by Western blot analysis; format: functional, cell-based
MCF7 [4] = assay: Induction of apoptosis in human MCF7 cells assessed as increase in caspase-9 activation at 1 to 2 uM after 48 hrs by Western blot analysis; format: functional, cell-based
MCF7 [5] = assay: Induction of apoptosis in human MCF7 cells assessed as increase in PARP 89 KDa cleavage at 1 to 2 uM after 48 hrs by Western blot analysis; format: functional, cell-based
HEK293 = assay: Cytotoxicity against human HEK293 cells assessed as cell growth inhibition after 48 hrs by MTT assay; format: cell-based; details: HEK293, 48 h
Vero = assay: Cytotoxicity against African green monkey Vero cells assessed as cell growth inhibition after 48 hrs by MTT assay; format: cell-based; details: Chlorocebus sabaeus
MCF7 [6] = assay: Disruption of mitochondrial membrane potential in human MCF7 cells assessed as cells with vital and intact mitochondrial membrane at 1 uM after 48 hrs by JC-1 staining based flow cytometry (reference value: 94%); format: functional
MCF7 [7] = assay: Disruption of mitochondrial membrane potential in human MCF7 cells assessed as cells with vital and intact mitochondrial membrane at 2 uM after 48 hrs by JC-1 staining based flow cytometry (reference value: 94%); format: functional
MCF7 [8] = assay: Induction of ROS generation in human MCF7 cells at 1 uM after 48 hrs by DCFDA fluorescent probe based flow cytometry (reference value: 5.3%); format: functional
MCF7 [9] = assay: Induction of ROS generation in human MCF7 cells at 2 uM after 48 hrs by DCFDA fluorescent probe based flow cytometry (reference value: 5.3%); format: functional
MCF7 [10] = assay: Induction of apoptosis in human MCF7 cells assessed as viable cells at 1 uM after 24 hrs by Annexin V-FITC/PI dual staining based flow cytometry (reference value: 94.9%); format: functional; details: MCF7, 24 h, read-out: Activity
MCF7 [11] = assay: Induction of apoptosis in human MCF7 cells assessed as early apoptotic cells at 1 uM after 24 hrs by Annexin V-FITC/PI dual staining based flow cytometry (reference value: 3.5%); format: functional
MCF7 [12] = assay: Induction of apoptosis in human MCF7 cells assessed as late apoptotic cells at 1 uM after 24 hrs by Annexin V-FITC/PI dual staining based flow cytometry (reference value: 1.5%); format: functional
MCF7 [13] = assay: Induction of apoptosis in human MCF7 cells assessed as necrotic cells at 1 uM after 24 hrs by Annexin V-FITC/PI dual staining based flow cytometry (reference value: 0.1%); format: functional
MCF7 [14] = assay: Induction of apoptosis in human MCF7 cells assessed as viable cells at 2 uM after 24 hrs by Annexin V-FITC/PI dual staining based flow cytometry (reference value: 94.9%); format: functional; details: MCF7, 24 h, read-out: Activity
MCF7 [15] = assay: Induction of apoptosis in human MCF7 cells assessed as early apoptotic cells at 2 uM after 24 hrs by Annexin V-FITC/PI dual staining based flow cytometry (reference value: 3.5%); format: functional
MCF7 [16] = assay: Induction of apoptosis in human MCF7 cells assessed as late apoptotic cells at 2 uM after 24 hrs by Annexin V-FITC/PI dual staining based flow cytometry (reference value: 1.5%); format: functional
MCF7 [17] = assay: Induction of apoptosis in human MCF7 cells assessed as necrotic cells at 2 uM after 24 hrs by Annexin V-FITC/PI dual staining based flow cytometry (reference value: 0.1%); format: functional
MCF7 [18] = assay: Cytotoxicity against human MCF7 cells; format: functional, cell-based

Structure (SMILES)	Activity (MCF7 [1])	Activity (MCF7 [2])	Activity (MCF7 [3])	Activity (MCF7 [4])	Activity (MCF7 [5])	IC50 (HEK293)	IC50 (Vero)	Activity (MCF7 [6])	Activity (MCF7 [7])	Activity (MCF7 [8])	Activity (MCF7 [9])	viability at 1 µM (MCF7 [10])	Activity (MCF7 [11])	Activity (MCF7 [12])	Activity (MCF7 [13])	viability at 2 µM (MCF7 [14])	Activity (MCF7 [15])	Activity (MCF7 [16])	Activity (MCF7 [17])	IC50 (MCF7 [18])
O=C1Nc2cc(Cl)ccc2/C1=C/c1ccc2nc(-c3cc(F)cc(F)c3)[nH]c2c1	Dose-dependent effect	Dose-dependent effect	Active	Active	Active	147 µM	97.9 µM	83.1%	61.8%	20.3%	30%	42.3%	32.5%	23.4%	1.8%	31%	33%	34.9%	1.2%	1.97 µM
COc1ccc(-c2nc3ccc(/C=C4\C(=O)Nc5ccc(Cl)cc54)cc3[nH]2)cc1	Dose-dependent effect	Dose-dependent effect	Active	Active	Active	170 µM	109 µM	80.7%	57.7%	21.9%	33.8%	40.7%	26.3%	31.3%	1.6%	27%	35.4%	36.5%	1.1%	1.84 µM
